Measured values from paper PMC6154605, “Multi-Anti-Parasitic Activity of Arylidene Ketones and Thiazolidene Hydrazines against Trypanosoma cruzi and Leishmania spp” (Molecules : A Journal of Synthetic Chemistry and Natural …, 2017).
Read-outs that look alike come from different tables or passages of the source.

Legend:
[1] = test system: T. cruzi epimastigotes, Tulahuen 2 strain (genotype TcVI); assay: In vitro anti-T. cruzi activity, growth inhibition of epimastigotes; assay type: cell-based, Trypanosoma cruzi; conditions: for IC50: Trypanosoma cruzi, TULAHUEN; for SI J774.1/ T. cruzi: ratio IC50 mammalian cell / IC50 parasite (epimastigotes); for Trypanocidal activity on T. cruzi in words: molecular stripping, epimastigotes
Description: For the in vitro anti-T. cruzi activity, we used epimastigotes of the Tulahuen 2 strain (genotype TcVI) grown in an axenic milieu (BHI-Tryptose). Cells from a 5–7-day-old culture were inoculated in fresh culture milieu to give an initial concentration of 1.00 × 10^6 cells/mL. The absorbance at 600 nm of the cells in culture was measured every day. At Day 5, the milieu was inoculated with different quantities of the compounds from a stock solution in DMSO (DMSO concentration in the culture milieu never exceeded 0.4%). The control was made in the presence of 0.4% DMSO and in the absence of compounds. Each concentration of compound was evaluated in duplicate. At Day 5, the absorbance of the culture was measured and related to the control. […] Each antiproliferative experiment was done in duplicate, and each concentration was tested in triplicate.

[2] = test system: J774.1 murine macrophages; assay: Nonspecific cytotoxicity on macrophages, MTT; assay type: cell-based; conditions: J774.1, 48 h, read-out: IC50 ± SD Murine Macrophages
Description: (§1) To establish the selectivity of the compounds against the parasites, nonspecific cytotoxicity against mammalian cells, using J774.1 murine macrophages and fibroblast NCTC929, was studied for the most relevant derivatives. The selectivity indexes were calculated as the ratio between cytotoxicity for mammalian cells and the anti-parasitic activity (Table 2).
J774.1 murine macrophage cells (ATCC, USA) were grown in DMEM culture milieu containing 4 mM L-glutamine and supplemented with 10% FCS. The cells were seeded in a 96-well plate (5.00 × 10^4 cells in 200 µL culture medium) and incubated at 37 °C in a 5% CO2 atmosphere for 48 h, to allow cell adhesion prior to drug testing. Afterwards, cells were exposed for 48 h to the compounds (25–400 μM) or the vehicle for control (0.4% DMSO), and additional controls (cells in medium) were used in each test. Cell viability was then assessed by measuring the mitochondria-dependent reduction of MTT (3-(4,5-dimethylthiazol-2-yl)-2,5-diphenyltetrazolium bromide) to formazan. For this purpose, MTT in sterile PBS (0.2% glucose), pH 7.4, was added to the macrophages to achieve a final concentration of 0.1 mg/mL, and the cells were incubated at 37 °C for 3 h. After removing the medium, formazan crystals were dissolved in 180 μL of DMSO and 20 μL of MTT buffer (0.1 M glycine, 0.1 M NaCl, 0.5 mM EDTA, pH 10.5), and the absorbance at 560 nm was measured. The IC50 was defined as the drug concentration at which 50% of the cells were viable, relative to the control (no drug added), and was determined by analysis using OriginLab8.5® sigmoidal regression (% of viable cells vs. the logarithm of the compound concentration). Tests were performed in triplicate.

zebrafish embryos = assay: Zebrafish embryo toxicity test (LD50)
Description: […] Only embryos that were clearly undamaged after 60 min of observation were kept and subsequently used. Dechorionated embryos were further manipulated using flame-rounded tip glass Pasteur pipettes. […] In all cases, the embryos were incubated in system water with 1% DMSO (negative control) and the compound at different doses between 8 and 96 hpf. The treatment solution was changed daily. […] At selected time points, namely 24, 48, 72 and 96 hpf, embryotoxicity (= mortality) and morphological characteristics of the embryos were evaluated using a Nikon SMZ800 stereomicroscope. The embryos were evaluated for the presence and morphological development (as appropriate) of somites, tail detachment, eyes, heart beat and blood circulation. All individuals were evaluated at all time points.

[3] = test system: L. braziliensis promastigotes; assay: Leishmanicidal activity on promastigotes, resazurin; assay type: cell-based, Leishmania braziliensis; conditions: for IC50: 48 h, read-out: IC50 ± SD Promastigotes L. braziliensis; for SI NCTC/ L. braziliensis: ratio IC50 mammalian cell / IC50 parasite (promastigotes)
From the text: (§2) We initially selected compounds previously reported to have anti-T. cruzi activity from our chemical library to evaluate their leishmanicidal activity. […]. To evaluate their activity in Leishmania spp., we performed a phenotypic screening using the promastigote form of L. infantum (MHOM/FR/91/LEM-2259) and L. braziliensis ([…]) (Table 1A for the thiazolidenehydrazine derivate and Table 1B for the arylideneketones family).
(§3) A culture of L. braziliensis (MHOM/BR/75/M2904) and L. infantum (MHOM/FR/91/LEM2259V) was obtained from the Facultad de Farmacia (Universidad Complutense, Madrid, Spain). The maintenance of the strains, the form of cultivation and the isolation of the shape of the promastigote were performed following the procedures described by Roldos et al.. The promastigotes were grown at 22 °C in Schneider’s Drosophila medium supplemented with 20% FBS. The assay was performed using a modification of a previous method. Promastigotes (2 × 10^6 parasites/well) were cultivated in 96-well plastic plates. Compounds were dissolved in dimethylsulfoxide (DMSO). Different dilutions of the compounds with a final volume up to 200 µL were added. After 48 h at 26 °C, 20 µL of a 2 mM resazurin solution were added, and the oxidation-reduction was quantified at 570 and 600 nm. The solution of resazurin was prepared at 2.5 mM in phosphate buffered solution (PBS), pH 7.4, and filtered through 0.22-µm membranes prior to use. All tests were carried out in triplicate. Resazurin sodium salt was obtained from Sigma-Aldrich (St. Louis, MO, USA) and stored at 4 °C protected from light. The efficacy of each compound was estimated by calculating the IC50 values. Each antiproliferative experiment was done in duplicate, and each concentration was tested in triplicate.

[4] = test system: L. infantum promastigotes; assay: as above; assay type: cell-based, Leishmania infantum; conditions: for IC50: 48 h, read-out: IC50 ± SD Promastigotes L. infantum; for SI NCTC/ L. infantum: ratio IC50 mammalian cell / IC50 parasite (promastigotes)
From the text: as §2, §3

NCTC929 fibroblasts = assay: Nonspecific cytotoxicity on fibroblasts, resazurin; assay type: cell-based; conditions: NCTC-929, 24 h; read-out: IC50 ± SD Fibroblast NCTC929
Description: as §1
NCTC-Clone 929 were grown in minimal essential medium (Sigma) supplemented with 10% heat-inactivated FBS, penicillin G (100 U/mL) and streptomycin (100 µg/mL). Cell cultures were maintained at 37 °C in a humidified 5% CO2 atmosphere. The procedure for cell viability measurement was evaluated with resazurin by a colorimetric method. The cells were plated in 96 microtiter plates at 3.00 × 10^4 cells/well in 100 µL growth medium. The cells were grown overnight at 37 °C, 5% CO2. Thereafter, the medium was removed, and the compounds were added to 200 µL of medium for 24 h. After incubation, 20 µL of a 2 mM resazurin solution were added to each well. The plates were incubated for 3 h to allow optimal oxidation-reduction. The reduction of resazurin was determined by dual wavelength absorbance measurement at 490 and 595 nm. The background was subtracted. Each concentration was assayed three times. Medium and drug controls were used in each test as blanks.

[5] = Tulahuen 2 strain, read-out: IC50 ± SD Epimastigotes T. cruzi
[6] = Figure 4, molecular stripping of HIT1, read-out: Effect of structural change on trypanocidal activity (emoticon code)

In the case of `O=C(Cn1ccnc1[N+](=O)[O-])NCc1ccccc1` [Benznidazole, reference compound], the IC50 [1, 5] is reported as 7 ± 1 µM, the “SI J774.1/ T. cruzi” value [1] is reported as 57 and the IC50 ([2]; Mus musculus) is reported as 400 ± 4 µM. For the same compound, the LD50 without chorion (zebrafish embryos; dechorionated zebrafish embryos, 72 h incubation) was > 1000 µM and the LD50 with chorion (zebrafish embryos; zebrafish embryos with chorion) was > 1000 µM.

For `C=CCn1c(-c2ccc(Cl)cc2)cs\c1=N/N=C/C=C/c1ccc(C)o1` [GAT0113A], the IC50 [1, 5] was 3 ± 0.5 µM, the “Trypanocidal activity on T. cruzi in words” value (from here on “Trypanocidal activity”) [1] was “equipotent to the parent compound” and the “SI J774.1/ T. cruzi” value [1] was 22. For the same compound, the IC50 ([3]; Leishmania braziliensis) was 10 ± 1 µM, the “SI NCTC/ L. braziliensis” value [3] was 32 and the IC50 ([4]; Leishmania infantum) was 8 ± 2 µM. For the same compound, the “SI NCTC/ L. infantum” value [4] was 40, the IC50 (NCTC929 fibroblasts) was 319 ± 16 µM and the IC50 ([2]; Mus musculus) was 66 ± 7 µM. For the same compound, the melting point was 220 °C (dec.).

With `C=CCn1c(-c2ccc(Cl)cc2)cs\c1=N/N=C/C(C)=C/c1ccco1` [GAT0513] the IC50 [1, 5] was 0.09 ± 0.02 µM, the “Trypanocidal activity” value [1] was “active against T. cruzi” and the “SI J774.1/ T. cruzi” value [1] was 611. For the same compound, the IC50 ([3]; Leishmania braziliensis) was 33 ± 11 µM, the “SI NCTC/ L. braziliensis” value [3] was 44 and the IC50 ([4]; Leishmania infantum) was 58 ± 12 µM. The “SI NCTC/ L. infantum” value [4] was 25, the IC50 (NCTC929 fibroblasts) was 1440 ± 30 µM and the IC50 ([2]; Mus musculus) was 55 ± 5 µM. The melting point was 228 °C (dec.).

In the case of `C(=Cc1ccccc1)CN1CCN(/N=C/C=C/c2ccco2)CC1` [GAT0913b, (E)-4-cinnamyl-N-((E)-3-(furan-2-yl)allylidene)piperazin-1-amine], the IC50 [1, 6] is reported as > 25 µM, the IC50 [1, 5] is reported as > 25 µM and the “Trypanocidal activity” value [1] is reported as “the activity was lost”. The “SI J774.1/ T. cruzi” value [1] was 1, the IC50 ([3]; Leishmania braziliensis) was 18 ± 5 µM and the “SI NCTC/ L. braziliensis” value [3] was 9. The IC50 ([4]; Leishmania infantum) was 21 ± 2 µM, the “SI NCTC/ L. infantum” value [4] was 8 and the IC50 (NCTC929 fibroblasts) was 160 ± 7 µM. For the same compound, the IC50 ([2]; Mus musculus) was 25 ± 3 µM.

For `Cc1ccc(/C=C/C=C/C(/C=C/C=C/c2ccc(C)o2)=NN2CCN(CC=Cc3ccccc3)CC2)o1` [GAT1113, N-((1E,3E,6E,8E)-1,9-bis(5-methylfuran-2-yl)nona-1,3,6,8-tetraen-5-ylidene)-4-cinnamylpiperazin-1-amine], the IC50 [1, 6] was < 5 µM, the IC50 [1, 5] was 1.6 ± 0.3 µM and the “SI J774.1/ T. cruzi” value [1] was 28. For the same compound, the IC50 ([3]; Leishmania braziliensis) was 16 ± 4 µM, the “SI NCTC/ L. braziliensis” value [3] was 10 and the IC50 ([4]; Leishmania infantum) was 14 ± 2 µM. For the same compound, the “SI NCTC/ L. infantum” value [4] was 12, the IC50 (NCTC929 fibroblasts) was 165 ± 5 µM and the IC50 ([2]; Mus musculus) was 45 ± 5 µM. The melting point was 148 to 150 °C.

In the case of `Clc1ccc(-c2csc(N/N=C/C=C/c3ccco3)n2)cc1` [GAT2212B], the IC50 [1, 5] is reported as 1.2 ± 0.3 µM, the IC50 ([3]; Leishmania braziliensis) is reported as > 25 µM and the IC50 ([4]; Leishmania infantum) is reported as 25 µM. For the same compound, the melting point was 212 °C (dec.).

With `C=CCn1c(C(=O)CN2CCN(CC=Cc3ccccc3)CC2)cs/c1=N/N=C\C=C\c1ccco1` [GATk6, 1-((Z)-3-allyl-2-((E)-((E)-3-(furan-2-yl)allylidene)hydrazono)-2,3-dihydrothiazol-4-yl)-2-(4-cinnamylpiperazin-1-yl)ethanone] the IC50 [1, 6] was < 5 µM, the IC50 [1, 5] was 1.2 ± 0.3 µM and the IC50 ([3]; Leishmania braziliensis) was > 25 µM. The IC50 ([4]; Leishmania infantum) was > 25 µM and the melting point was 140 to 142 °C.

In the case of `CCCCCCCCCCCCCCCCOP(=O)([O-])OCC[N+](C)(C)C` [Miltefosine, reference compound], the IC50 [1, 5] is reported as 8 ± 1 µM, the “SI J774.1/ T. cruzi” value [1] is reported as 6 and the IC50 ([3]; Leishmania braziliensis) is reported as 0.9 ± 0.2 µM. The IC50 ([4]; Leishmania infantum) was 0.9 ± 0.2 µM, the “SI NCTC/ L. infantum” value [4] was 56 and the IC50 ([2]; Mus musculus) was 50 ± 7 µM.

With Glucantime [reference compound] the IC50 [3] was 18 ± 2 µM, the “SI NCTC/ L. braziliensis” value [3] was 1 and the IC50 [4] was 26 ± 9 µM. The “SI NCTC/ L. infantum” value [4] was 0.5 and the IC50 [2] was 15 ± 1 µM.
